Test results taken from patent publication US20240318145A1, “STRUCTURALLY COMPLETE ORGANOIDS” (Children's Hospital Medical Center, priority 2021, published 2024).
Entries after “also recorded” stand apart in the source; their conditions may differ.

Columns and labels:
Type in all cases: cell-based, human
muscarinic receptor = test: Ex vivo isometric force contraction of muscle strips from transplanted hAGO +SM +ENS in an organ bath
ENS = test system: ENS
ENCCs = test: Expression of BMP ligands in ENCC culture (qRT-PCR); details: ENCC culture treated with NOG; FIG. 15B
Method: (§1) One candidate pathway was BMP signaling, which is known to promote posterior fate in the gastrointestinal junction. Analysis of ENCCs show high levels of expression of both BMP4 and BMP7 (FIG. 15A). To functionally investigate if BMP activity might mediate the ability of ENCCs to promote a Brunner's gland fate, ENCCs were recombined with hAGO at day 6 and then organoids were cultured with the BMP inhibitor Noggin (NOG) from day 6-9, along with RA, which is a component of the normal hAGO protocol. None of the grafts (0 out of 27) had Brunner's gland epithelium following 3 days of Noggin treatment as compared to hAGOs +ENCCs added at day 9 not treated with NOG (5 out of 21 grafts). […]
RNA isolation and quantitative real-time PCR (qRT-PCR): Spheroids and organoids were harvested in RAI Lysis Buffer and β-mercapethanol and stored at −80° C. until total RNA was isolated using NucleoSpin RNA Isolation Kit (Macherey-Nagel) according to manufacturers' instructions. Complementary DNA (cDNA) was reverse transcribed from 116 ng of RNA using a SuperScript VILO cDNA Synthesis Kit (Invitrogen). qRT-PCR was performed using a QuantiTect SYBR Green PCR Kit (Qiagen) in MicroAmp EnduraPlate Optical 96-Well Fast Reaction Plates (Applied Biosystems) and run on a QuantStudio 6 Real-Time PCR Detection System (Applied Biosystems). […]

hAGOs +ENCCs = test: Brunner's gland epithelium in grafts of hAGOs recombined with ENCCs and transplanted into mice; details: ENCCs recombined at day 6, Noggin day 6-9 (3 days) along with RA; compared with 5 out of 21 grafts not treated
Method: as §1
Recombination and additional spheroid patterning: Single cell suspensions of mesenchymal cells and ENCCs were counted and added to foregut spheroids at an approximate ratio of 1,000 ENCCs and 2,500 mesenchyme cells per spheroid. […]
In vivo transplantation of hAGOs and hFGOs: hAGO, hFGO, hAGO +ENS, hAGO +SM +ENS, hAGO +SM +ENS, and hFGO +SM +ENS were all ectopically transplanted into the kidney capsule of NSG mice. […] Engrafted organoids were harvested 6-15 weeks after transplantation and analyzed for neuroglial, epithelial, and mesenchymal maturation.

Molecule: CN1[C@@H]2C[C@@H](OC(=O)[C@H](CO)c3ccccc3)C[C@H]1[C@@H]1O[C@@H]12 [scopolamine]
- reversal of contractions / muscle relaxation (muscarinic receptor): contractions were able to be reversed and muscle relaxation induced

Molecule: CC(C[N+](C)(C)C)OC(N)=O (stereo not drawn) [bethanechol, Carbamyl-β-methylcholine chloride]
- contractility (smooth muscle force contraction), dose response (muscarinic receptor; 1 nM to 10 mM at 2 min intervals, tissue strips of transplanted hAGO +SM +ENS, FIG. 4C): increased in response to bethanechol in a dose-dependent manner
- normalized mean maximal tension (muscarinic receptor; bethanechol dose response before scopolamine, normalized to muscle strip mass, n=3, FIG. 4D): 236.9 g/g

Molecule: NC1=N[C@H](O)[C@H]2[C@H]3O[C@]4(O)O[C@@H]([C@@H](O)[C@@]2(N1)[C@@H]4O)[C@]3(O)CO [tetrodotoxin]
- EFS-stimulated contractile activity (change in AUC) (ENS): abolished the ability of EFS to stimulate contractile activity; also recorded: abrogating EFS-mediated contractions

B1: Noggin: BMP inhibitor Noggin (NOG) (protein, UniProt Q13253 28-232, looked up)
Noggin: QHYLHIRPAPSDNLPLVDLIEHPDPIFDPKEKDLNETLLRSLLGGHYDPGFMATSPPEDRPGGGGGAAGGAEDLAELDQLLRQRPSGAMPSEIKGLEFSEGLAQGKKQRLSKKLRRKLQMWLWSQTFCPVLYAWNDLGSRFWPRYVKVGSCFSKRSCSVPEGMVCKPSKSVHLTVLRWRCQRRGGQRCGWIPIQYPIISECKCSC
- levels of BMP4 and BMP7 expression (ENCCs): significantly reduced levels of both BMP4 and 7
- grafts with Brunner's gland epithelium (hAGOs +ENCCs): 0 out of 27
